From patent US20130040908A1, “SUBSTITUTION DERIVATIVES OF N6-BENZYLADENOSINE-5' -MONOPHOSPHATE, METHODS OF PREPARATION THEREOF, USE THEREOF AS MEDICAMENTS, AND THERAPEUTIC PREPARATIONS CONTAINING THESE COMPOUNDS” (BIOAPEX, S.R.O., priority 2010, published 2013)

Key:
[1] = tested on: K-562 (human erythroleukemia); assay: Calcein AM cytotoxicity assay, K-562; type: cell-based
From the text: (§1) Because toxic compounds negatively influence metabolic processes in cells, many standard cytotoxicity assays are based on measurement of metabolisation rate of various artificial substrates. Resulting product is then quantified e.g. by means of spectrometry. The assays can be easily modified for use in 96-well plates. For evaluation of cytotoxic effect of the novel substituted 9-substituted cytokinin derivatives of this invention, a microtiter assay based on quantification of metabolisation of Calcein AM was used. The assay is widely used in drug screening programs and in chemosensitivity testing. In the living cells, Calcein AM is enzymatically hydrolysed and accumulation of resulting calcein is manifested by green fluorescence.
(§2) Normal human fibroblasts BJ were used as a control for routine screening of the compounds. The cells were kept in Nunc/Corning 80 cm^2 plastic bottles and grown in cell culture medium (DMEM containing 5 g/l glucose, 2 mM glutamine, 100 U/ml penicillin, 100 μg/ml streptomycine, 10% fetal bovine serum and sodium hydrogencarbonate), the compounds were prepared according to the procedure of the present invention.
(§3) The cell suspensions were prepared and diluted according to the particular cell type and the expected target cell density (2.500-30.000 cells per well based on cell growth characteristics) and pippetted (80 μl) into 96-well plates. […] Tested compound was added in total volume of 20 μl of water at time zero. Usually, test compound was evaluated at six 3-fold dilutions. […] All drug concentrations were tested in triplicates. […] At the end of incubation period Calcein AM in PBS was added into final concentration of 1 μg/ml. After another 1 hour of incubation fluorescence (FD) was measured with the Labsystem FIA Reader Fluoroscan Ascent (UK). Growth inhibition (GI) was estimated using the following equitation: GI=(mean FDdrug exposed wells−mean FDblank)/(mean FDcontrol wells−mean FDblank)×100%.

MCF-7 (breast carcinoma) = assay: Calcein AM cytotoxicity assay, MCF7; type: cell-based; conditions: MCF7, 72 hours
From the text: as §1, §2, §3

[2] = tested on: G-361 (human malignant melanoma); assay: Calcein AM cytotoxicity assay, G-361; type: cell-based; conditions: G-361, 72 hours
From the text: as §1, §2, §3

[3] = tested on: CEM (T-lymphoblastoid leukemia); assay: Calcein AM cytotoxicity assay, CEM; type: cell-based; conditions: 72 hours
From the text: as §1, §2, §3

[4] = tested on: HL-60 (promyelocytic leukemia); assay: Calcein AM cytotoxicity assay, HL60; type: cell-based, human
From the text: as §1, §2, §3

Human lymphocytes = assay: Immunosuppressive activity, 3H-thymidine incorporation in concanavalin A activated lymphocytes; type: cell-based; conditions: 72 hours, [3H]-TdR
From the text: One of the most important parameters of specific cellular immunity is the proliferative response of lymphocytes to antigens or polyclonal mitogens. The majority of normal mammalian peripheral lymphocytes comprise resting cells. Antigens or nonspecific polyclonal mitogens have the capacity to activate lymphoid cells and this is accompanied by dramatic changes of intracellular metabolism (mitochondrial activity, protein synthesis, nucleic acids synthesis, formation of blastic cells and cellular proliferation). […] Variety of in vitro assays was developed to measure proliferative response of lymphocytes. The most commonly used is ^3H-thymidine incorporation method.
During cell proliferation, DNA has to be replicated before the cell is divided into two daughter cells. This close association between cell doublings and DNA synthesis is very attractive for assessing cell proliferation. If labelled DNA precursors are added to the cell culture, cells that are about to divide incorporate the labelled nucleotide into their DNA. Traditionally, those assays usually involve the use of radiolabelled nucleosides, particularly tritiated thymidine ([^3H]-TdR). The amount of [^3H]-TdR incorporated into the cellular DNA is quantified by liquid scintillation counting. Human heparinized peripheral blood was obtained from healthy volunteers by cubital vein punction. The blood was diluted in PBS (1:3) and mononuclear cells were separated by centrifugation in Ficoll-Hypaque density gradient (Pharmacia, 1.077 g/ml) at 2200 rpm for 30 minutes. Following centrifugation, lymphocytes were washed in PBS and resuspended in cell culture medium (RMPI 1640, 2 mM glutamine, 100 U/ml penicillin, 100 μg/ml streptomycin, 10% fetal calf serum and sodium bicarbonate).
The cells were diluted at target density of 1.100.000 cells/ml and were added by pipette (180 μl) into 96-well microtiter plates. Four-fold dilutions of the intended test concentration were added at time zero in 20 μl aliquots to the microtiter plate wells. Usually, test compound was evaluated at six 4-fold dilutions. In routine testing, the highest well concentration was 266.7 μM. All drug concentrations were examined in duplicates. All wells with exception of unstimulated controls were activated with 50 of concanavalin A (25 μg/ml). Incubations of cells with test compounds lasted for 72 hours at 37° C., in 5% CO2 atmosphere and 100% humidity. At the end of incubation period, the cells were assayed by using the [^3H]-TdR:
Cell cultures were incubated with 0.5 μCi (20 μl of stock solution 500 μCi/ml per well for 6 hours at 37° C. and 5% CO2. The automated cell harvester was used to lyse cells in water and adsorb the DNA onto glass-fiber filters in the format of microtiter plate. The DNA incorporated [^3H]-TdR was retained on the filter while unincorporated material passes through. The filters were dried at room temperature overnight, sealed into a sample bag with 10-12 ml of scintillant. The amount of [^3H]-TdR present in each filter (in cpm) was determined by scintillation counting in a Betaplate liquid scintillation counter. The effective dose of immunosuppressant (ED) was calculated using the following equation: ED=(CCPMdrug exposed well/mean CCPMcontrol wells)×100%. The ED50 value, the drug concentration inhibiting proliferation of 50% of lymphocytes, was calculated from the obtained dose response curves.

[5] = tested on: HOS (human osteogenic sarcoma); assay: Calcein AM cytotoxicity assay, HOS; type: cell-based; conditions: 72 hours
From the text: as §1, §2, §3

P388D1 leukemia = assay: In vivo anticancer activity, survival model of P388D1 leukemia; conditions: oral 250 mg/kg twice daily
Procedure: Screening of biological activity of compound 21 was performed on survival model of P388D1 leukemia transplanted intraperitoneally with 2.10^5 cells. DBA-2 mice were used as a host. One day following the leukemia transplantation, treatment with 21 was initiated. The drug was given orally by gastric gavages in total volume of 200 μl/dose twice daily at dose 250 mg/kg in two chemotherapy cycles (Days 1-3 and 7-9). The compound 21 was solubilized in 5% […], 30% polyethylene glycol 400, 65% tartar buffer (pH 3.0). Survival analysis of treated animals (10 mice/group) was preformed in comparison with vehicle treated mice using Kaplan-Meier method and the significance was evaluated by the log-rank test. Body weight of experimental animals was evaluated in parallel in order to reflect toxicity and efficacy of therapy. Comparative analysis of body weight was performed using non-parametric t-test.

caspase-3 = assay: Caspase-3 activity in CEM cells (Apo-ONE kit); type: cell-based; conditions: 10 μM, 12 and 24 hours
Procedure: In the course of apoptosis, caspase cascade is activated. Caspase-3 is an effector caspase that plays a role in the induction of some changes typical for apoptosis (chromatin condensation, DNA fragmentation). Leukemia cell line CEM was cultured in cell culture medium (DMEM containing 5 g/l glucose, 2 mM glutamine, 100 U/ml peniciline, 100 μg/ml streptomycine, 10% fetal calf serum and sodium bicarbonate). 24 hours before treatment, cell suspensions were centrifuged, diluted to concentration of 500000 cells per ml with fresh medium and pipetted in 50 μl, aliquotes into 96-well plate. After 12 and 24 hours of incubation with the test compound, the activity of caspase-3 was measured using commercial kit (Apo-ONE, Promega) that is based on quantification of hydrolysis of fluorogenic substrate Z-DEVD-R110 (excitation 480 nm/emission 520 nm). Reaction specificity was confirmed in a control experiment, when both test compound and caspase-3 inhibitor Ac-DEVD-CHO were added. All experiments were done in triplicate.

Leukemia cell line CEM = assay: Flow cytometry of DNA fragmentation (sub-G1) in CEM cells; type: cell-based; conditions: IC50, triple IC50 and fivefold IC50
Procedure: One of the hallmarks of apoptosis is fragmentation of DNA. It can be measured by flowcytometry of the cells stained with propidium iodide. Because the fragmentation results in a loss of a fraction of the nuclear DNA, apoptotic cells have a lower DNA content than cells in G1 phase of cell cycle and can be detected as a subG1 peak in the histogram.
Leukemia cell line CEM was cultured in cell culture medium (DMEM containing 5 g/l glucose, 2 mM glutamine, 100 U/ml peniciline, 100 μg/ml streptomycine, 10% fetal calf serum and sodium bicarbonate). 24 hours before treatment, cell suspensions were centrifuged, diluted with fresh medium to concentration of 100000 cells per ml with fresh medium and pipetted in 10 ml aliquotes Petri dishes. After an incubation for a given time period, the cells were collected by centrifugation (4° C., 600 g), washed with PBS (4° C.) and fixed with 70% ethanol at −20° C. overnight. Low molecular weight DNA fragmentse were extracted with citrate buffer (11.36 g trisodium citrate dihydrate/1). The nuclei were stained with the solution of propidium iodide in PBS (10 μg/ml) containing RNase A (60 IU per sample). After 1 hour incubation the samples were analyzed by flowcytometry (excitation 488 nm, emission above 620 nm).

[6] = tested on: Normal human fibroblasts BJ; assay: Calcein AM cytotoxicity assay, BJ fibroblasts; type: cell-based; conditions: 72 hours
From the text: as §1, §2, §3

| Compound | GI50 ([1]; K-562, 72 hours) [µM] | GI50 (MCF-7 (breast carcinoma)) [µM] | GI50 [3] [µM] | GI50 ([4]; HL60, 72 hours) [µM] | Human lymphocytes ED50 (Human lymphocytes) [µM] | GI50 [5] [µM] | further results |
| --- | --- | --- | --- | --- | --- | --- | --- |
| O=P(O)(O)OC[C@H]1O[C@@H](n2cnc3c(NCc4cccc(F)c4)ncnc32)[C@H](O)[C@@H]1O [Compound 2, 6-(3-fluorobenzylamino)purine riboside-5′-monophosphate] | 7.2 | 14.7 | 3.2 | 0.83 | 11.5 |  | GI50 [2]: 14.6 µM |
| O=P(O)(O)OC[C@H]1O[C@@H](n2cnc3c(NCc4ccc(F)cc4)ncnc32)[C@H](O)[C@@H]1O [Compound 3, 6-(4-fluorobenzylamino)purine riboside-5′-monophosphate] | 6.1 | 12.3 | 1.2 | 0.69 | 13.4 | 12.1 |  |
| Cc1cccc(CNc2ncnc3c2ncn3[C@@H]2O[C@H](COP(=O)(O)O)[C@@H](O)[C@H]2O)c1 [Compound 13, 6-(3-methylbenzylamino)purine riboside-5′-monophosphate] | 160 | 71.7 | 11.6 | 6.6 | 7.5 |  |  |
| COc1ccccc1CNc1ncnc2c1ncn2[C@@H]1O[C@H](COP(=O)(O)O)[C@@H](O)[C@H]1O [Compound 15, 6-(2-methoxybenzylamino)purine riboside-5′-monophosphate] | 8.4 | 113 | 2.4 | 2.1 |  | 20.1 |  |
| O=P(O)(O)OC[C@H]1O[C@@H](n2cnc3c(NCc4ccccc4O)ncnc32)[C@H](O)[C@@H]1O [Compound 21, 6-(2-hydroxybenzylamino)purine riboside-5′-monophosphate] |  |  |  |  | 6.7 |  | body weight of treated animals (P388D1 leukemia): only slight reduction; tolerability in animals (P388D1 leukemia): good tolerability; mean survival time (P388D1 leukemia; Days 1-3 and 7-9, vehicle group 13.9 days): 15.4 days; survival analysis (Kaplan-Meier, log-rank) (P388D1 leukemia; P=0.0409 versus vehicle): significantly better survival; activity of caspase-3 (caspase-3): activates caspase-3; DNA fragmentation (apoptotic sub-G1 fraction) (Leukemia cell line CEM): induction of DNA fragmentation |
| O=P(O)(O)OC[C@H]1O[C@@H](n2cnc3c(NCc4cccc(O)c4)ncnc32)[C@H](O)[C@@H]1O [Compound 22, 6-(3-hydroxybenzylamino)purine riboside-5′-monophosphate] | 92.4 | 108 | 49.8 | 19 | 12.8 |  |  |
| O=P(O)(O)OC[C@H]1O[C@@H](n2cnc3c(NCc4ccc(Cl)c(Cl)c4)ncnc32)[C@H](O)[C@@H]1O [Compound 25, 6-(3,4-dichlorobenzylamino)purine riboside-5′-monophosphate] | 6.1 | 82.8 | 3.1 | 1 |  | 112 | GI50 [6]: 132 µM |
| Nc1ncnc2c1ncn2[C@@H]1O[C@H](COP(=O)(O)O)[C@@H](O)[C@H]1O [adenosine-5′-monophosphate, reference compound] |  |  | > 167 |  |  |  | GI50 ([5]; Homo sapiens): > 167 µM; GI50 ([1]; Homo sapiens, K562, K-562, 72 hours): > 167 µM; GI50 (MCF-7 (breast carcinoma); Homo sapiens): > 167 µM; GI50 ([6]; Homo sapiens, Fibroblast): > 167 µM; GI50 ([2]; Homo sapiens): > 167 µM; GI50 ([4]; Homo sapiens, HL-60, HL60, 72 hours): > 167 µM |
| zeatin riboside-5′-monophosphate [reference compound] | > 167 | > 167 | > 167 | > 167 |  | > 167 | GI50 [6]: > 167 µM; GI50 [2]: > 167 µM |
